#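 Each compound was tested at five concentrations against cells in 96-well plates for 48 hours. TGI denotes the concentration required for complete inhibition of growth.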
# Columns and labels:
# Test in all cases: NCI tumour cell line growth inhibition, 48 h
# SF-295 CNS = tested on: SF-295 CNS
# COLO 205 colon = tested on: COLO 205 colon
# MDA-MB-231 breast = tested on: MDA-MB-231 breast
# 786-0 renal = tested on: 786-0 renal
# MALME-3M melanoma = tested on: MALME-3M melanoma
# UACC-257 melanoma = tested on: UACC-257 melanoma
# ACHN renal = tested on: ACHN renal
# SNB-19 CNS = tested on: SNB-19 CNS
# HCT-116 colon = tested on: HCT-116 colon
# HS 578T breast = tested on: HS 578T breast
# SW-620 colon = tested on: SW-620 colon
# DU-145 prostate = tested on: DU-145 prostate
# UO-31 renal = tested on: UO-31 renal
# SK-MEL-5 melanoma = tested on: SK-MEL-5 melanoma
# HOP-62 NSCLC = tested on: HOP-62 NSCLC
# HT29 colon = tested on: HT29 colon
# CAKI-1 renal = tested on: CAKI-1 renal
# SR leukemia = tested on: SR leukemia
# SNB-75 CNS = tested on: SNB-75 CNS
# NCI-H460 lung = tested on: NCI-H460 lung
# SK-MEL-28 melanoma = tested on: SK-MEL-28 melanoma
# UACC-62 melanoma = tested on: UACC-62 melanoma
# SK-MEL-2 melanoma = tested on: SK-MEL-2 melanoma
# K-562 leukemia = tested on: K-562 leukemia
# SF-268 CNS = tested on: SF-268 CNS
# NCI-H522 lung = tested on: NCI-H522 lung
# EKVX NSCLC = tested on: EKVX NSCLC
# MOLT-4 leukemia = tested on: MOLT-4 leukemia
# A498 renal = tested on: A498 renal
# U251 CNS = tested on: U251 CNS
# PC-3 prostate = tested on: PC-3 prostate
# LOX IMVI melanoma = tested on: LOX IMVI melanoma
# HOP-92 NSCLC = tested on: HOP-92 NSCLC
# MDA-MB-435 = tested on: MDA-MB-435
# M14 melanoma = tested on: M14 melanoma
# SN12C renal = tested on: SN12C renal
# OVCAR-4 ovarian = tested on: OVCAR-4 ovarian
# MCF7 breast = tested on: MCF7 breast
# T-47D breast = tested on: T-47D breast
# HCC-2998 colon = tested on: HCC-2998 colon
# OVCAR-5 ovarian = tested on: OVCAR-5 ovarian
# HL-60(TB) leukemia = tested on: HL-60(TB) leukemia
# HCT-15 colon = tested on: HCT-15 colon
# RXF 393 renal = tested on: RXF 393 renal
# A549 NSCLC = tested on: A549 NSCLC
# NCI-H23 lung = tested on: NCI-H23 lung
# KM12 colon = tested on: KM12 colon
# CCRF-CEM leukemia = tested on: CCRF-CEM leukemia
# SF-539 CNS = tested on: SF-539 CNS
# IGROV1 ovarian = tested on: IGROV1 ovarian
# TK-10 renal = tested on: TK-10 renal
# SK-OV-3 ovarian = tested on: SK-OV-3 ovarian
# OVCAR-8 ovarian = tested on: OVCAR-8 ovarian
# RPMI-8226 leukemia = tested on: RPMI-8226 leukemia
# OVCAR-3 ovarian = tested on: OVCAR-3 ovarian
# BT-549 breast = tested on: BT-549 breast
# MDA-N = tested on: MDA-N
# NCI/ADR-RES ovarian = tested on: NCI/ADR-RES ovarian
# NCI-H226 lung = tested on: NCI-H226 lung
compound,measurement,setting,value
CC1=CC(C)C(C)N(CC2=NCCN2)c2ccccc21 (stereo not drawn),TGI,SF-295 CNS,> 100 µM
same,TGI,COLO 205 colon,32.3 µM
same,TGI,MDA-MB-231 breast,> 100 µM
same,TGI,786-0 renal,> 100 µM
same,TGI,MALME-3M melanoma,44.6 µM
same,TGI,UACC-257 melanoma,37.1 µM
same,TGI,ACHN renal,> 100 µM
same,TGI,SNB-19 CNS,> 100 µM
same,TGI,HCT-116 colon,> 100 µM
same,TGI,HS 578T breast,> 100 µM
same,TGI,SW-620 colon,> 100 µM
same,TGI,DU-145 prostate,> 100 µM
same,TGI,UO-31 renal,> 100 µM
same,TGI,SK-MEL-5 melanoma,36.4 µM
same,TGI,HOP-62 NSCLC,> 100 µM
same,TGI,HT29 colon,45.8 µM
same,TGI,CAKI-1 renal,> 100 µM
same,TGI,SR leukemia,> 82.4 µM
same,TGI,SNB-75 CNS,> 85.5 µM
same,TGI,NCI-H460 lung,> 100 µM
same,TGI,SK-MEL-28 melanoma,38.5 µM
same,TGI,UACC-62 melanoma,> 100 µM
same,TGI,SK-MEL-2 melanoma,> 92.1 µM
same,TGI,K-562 leukemia,> 100 µM
same,TGI,SF-268 CNS,> 100 µM
same,TGI,NCI-H522 lung,> 100 µM
same,TGI,EKVX NSCLC,> 100 µM
same,TGI,MOLT-4 leukemia,> 100 µM
same,TGI,A498 renal,> 100 µM
same,TGI,U251 CNS,> 100 µM
same,TGI,PC-3 prostate,> 100 µM
same,TGI,LOX IMVI melanoma,> 100 µM
same,TGI,HOP-92 NSCLC,45.6 µM
same,TGI,MDA-MB-435,> 100 µM
same,TGI,M14 melanoma,32.7 µM
same,TGI,SN12C renal,> 100 µM
same,TGI,OVCAR-4 ovarian,> 100 µM
same,TGI,MCF7 breast,> 100 µM
same,TGI,T-47D breast,> 100 µM
same,TGI,HCC-2998 colon,33.9 µM
same,TGI,OVCAR-5 ovarian,> 100 µM
same,TGI,HL-60(TB) leukemia,> 89.3 µM
same,TGI,HCT-15 colon,> 100 µM
same,TGI,RXF 393 renal,> 89.9 µM
same,TGI,A549 NSCLC,> 100 µM
same,TGI,NCI-H23 lung,> 100 µM
same,TGI,KM12 colon,> 100 µM
same,TGI,CCRF-CEM leukemia,> 100 µM
same,TGI,SF-539 CNS,> 100 µM
same,TGI,IGROV1 ovarian,> 100 µM
same,TGI,TK-10 renal,> 100 µM
same,TGI,SK-OV-3 ovarian,> 100 µM
same,TGI,OVCAR-8 ovarian,> 100 µM
same,TGI,RPMI-8226 leukemia,> 100 µM
same,TGI,OVCAR-3 ovarian,> 100 µM
same,TGI,BT-549 breast,> 100 µM
same,TGI,MDA-N,> 100 µM
same,TGI,NCI/ADR-RES ovarian,> 100 µM
same,TGI,NCI-H226 lung,> 100 µM
CC1(c2ccc(Cl)cc2)NC(=NCCO)c2ccccc21 (stereo not drawn),TGI,SF-295 CNS,> 81.1 µM
same,TGI,COLO 205 colon,28.8 µM
same,TGI,MDA-MB-231 breast,> 100 µM
same,TGI,786-0 renal,30.4 µM
same,TGI,MALME-3M melanoma,35 µM
same,TGI,UACC-257 melanoma,33.5 µM
same,TGI,ACHN renal,> 100 µM
same,TGI,SNB-19 CNS,> 100 µM
same,TGI,HCT-116 colon,> 100 µM
same,TGI,HS 578T breast,> 95.1 µM
same,TGI,SW-620 colon,> 100 µM
same,TGI,DU-145 prostate,> 70.8 µM
same,TGI,UO-31 renal,> 100 µM
same,TGI,SK-MEL-5 melanoma,31 µM
same,TGI,HOP-62 NSCLC,> 100 µM
same,TGI,HT29 colon,> 62.8 µM
same,TGI,CAKI-1 renal,> 100 µM
same,TGI,SR leukemia,46 µM
same,TGI,SNB-75 CNS,> 85.1 µM
same,TGI,NCI-H460 lung,> 84.5 µM
same,TGI,SK-MEL-28 melanoma,30 µM
same,TGI,UACC-62 melanoma,32.1 µM
same,TGI,SK-MEL-2 melanoma,37.7 µM
same,TGI,K-562 leukemia,33.4 µM
same,TGI,SF-268 CNS,> 100 µM
same,TGI,NCI-H522 lung,> 100 µM
same,TGI,EKVX NSCLC,> 100 µM
same,TGI,MOLT-4 leukemia,37.8 µM
same,TGI,A498 renal,52.6 µM
same,TGI,U251 CNS,> 100 µM
same,TGI,PC-3 prostate,> 100 µM
same,TGI,LOX IMVI melanoma,32.8 µM
same,TGI,HOP-92 NSCLC,77.9 µM
same,TGI,MDA-MB-435,32.6 µM
same,TGI,M14 melanoma,25.5 µM
same,TGI,SN12C renal,> 100 µM
same,TGI,OVCAR-4 ovarian,> 100 µM
same,TGI,MCF7 breast,53.1 µM
same,TGI,T-47D breast,> 48 µM
same,TGI,HCC-2998 colon,24.8 µM
same,TGI,OVCAR-5 ovarian,> 100 µM
same,TGI,HL-60(TB) leukemia,> 35.5 µM
same,TGI,HCT-15 colon,> 100 µM
same,TGI,RXF 393 renal,57.9 µM
same,TGI,A549 NSCLC,> 100 µM
same,TGI,NCI-H23 lung,> 94.5 µM
same,TGI,KM12 colon,> 57.3 µM
same,TGI,CCRF-CEM leukemia,24.2 µM
same,TGI,SF-539 CNS,27.3 µM
same,TGI,IGROV1 ovarian,> 100 µM
same,TGI,TK-10 renal,> 100 µM
same,TGI,SK-OV-3 ovarian,> 100 µM
same,TGI,OVCAR-8 ovarian,> 100 µM
same,TGI,RPMI-8226 leukemia,19.5 µM
same,TGI,OVCAR-3 ovarian,> 100 µM
same,TGI,BT-549 breast,99.7 µM
same,TGI,MDA-N,26.9 µM
same,TGI,NCI/ADR-RES ovarian,> 100 µM
same,TGI,NCI-H226 lung,> 100 µM

# Source: PubChem BioAssay (NCI)
